Data on three molecules can be found in PMC11477482 (Molecules, 2024).

The structures appear in SMILES notation. Entries after “also recorded” stand apart in the source; their conditions may differ.

Data set [1] deals with NO production in LPS-stimulated RAW 264.7 macrophages. Nature of the data set: NO production in LPS-stimulated macrophages (Griess assay). It is filed as cell-based, mouse. The conditions noted are these: LPS 100 ng/mL, 24 h. The method, then:
The human keratinocytes (HaCaT, CLS 300493, Eppelheim, Germany) cell line was cultured with Dulbecco’s Modified Eagle’s Medium (DMEM) (Sigma-Aldrich, St. Louis, MO, USA), supplemented with 10% (v/v) of heat-inactivated fetal bovine serum (FBS), 1% (v/v) antibiotic solution (from a 10,000 U/mL penicillin and 10,000 μg/mL streptomycin stock) (Gibco, Carlsbad, CA, USA), 3.7 g/L sodium bicarbonate, and 1 mM sodium pyruvate (Sigma-Aldrich, St. Louis, MO, USA). The cell culture of keratinocytes was detached with EDTA solution 1X (Sigma-Aldrich, St. Louis, MO, USA) when the cells reached 70–80% confluence in cell culture flasks. The mouse macrophage cell line (RAW 264.7, ATCC TIB-71, Manassas, VA, USA) was cultured in DMEM supplemented with 10% (v/v) non-inactivated FBS, 1% (v/v) antibiotic solution, 1.5 g/L sodium bicarbonate, and 1 mM sodium pyruvate. Macrophages were mechanically detached with a cell scraper and subcultured in (1:10) proportion of cellular suspension to a final volume of DMEM. The human monocytic cell line THP-1 (ATCC® TIB-202™, American Type Culture Collection, Manassas, VA, USA) was cultivated in RPMI 1640 supplemented with 10% inactivated FBS, 25 mM (D)-glucose, 10 mM HEPES, 1 mM sodium pyruvate, 100 U/mL penicillin, and 100 μg/mL streptomycin, and maintained at a cell density of 0.4 × 10^6 cells/mL. Cells were subcultured every 2 or 3 days and maintained in culture for 2–3 months, according to ATCC® instructions. Nitric oxide (NO) production was measured by quantifying the accumulation of nitrites in culture supernatants using the Griess assay. […] After a 30 min incubation period at room temperature, protected from light, the absorbance was read at 550 nm using a microplate spectrophotometer. The concentration of nitrites present in the supernatants was determined by interpolation of the absorbance of each sample in a sodium nitrite standard curve. The results of four independent experiments, in duplicate, were expressed as the percentage of NO production by cells versus the concentration of the chemicals compared with LPS (100%).
For orientation: Griess reagent forms a coloured azo dye with nitrite.

Data set [2] can be described thus: Stability at different temperatures, pH 5 (UV-vis absorbance). It is filed as physicochemical. The conditions noted are these: for thermostability: pH 5, 4, 25, 40 and 60 °C. Here is the method: Each compound solution (100 µM) buffered at pH 5 was prepared in triplicate. The other three samples were stored at 4 °C, 25 °C, 40 °C, and 60 °C, protected from light. Aliquots of 3.00 mL were transferred to quartz cuvettes at specific time points, and their absorbance was measured by UV–vis spectrophotometry. The blank of each pH corresponded to 3.00 mL of respective buffer. Stability was determined in terms of the change in the maximum peak absorbance.

A short description of data set [3]: Stability at different pH values (UV-vis absorbance). The format is physicochemical. As to conditions: for pH stability: 100 µM buffered solutions, pH 2 to 8. The method, then:
Buffer solutions with pH values between 2 and 8 were prepared and their pH was measured. The buffer solutions were prepared according to Portuguese Pharmacopeia 11.0 specifications. Each compound solution (100 µM) buffered at a specific pH was prepared in triplicate. The solutions were stored at room temperature and protected from light. Aliquots of 3.00 mL were transferred to quartz cuvettes at specific time points, and their absorbance was measured by ultraviolet/visible (UV–vis) spectrophotometry. The blank for each pH corresponded to 3.00 mL of the respective buffer.

The test system of data set [4] is THP-1 cells (CD54 and CD86 expression). Nature of the data set: Skin sensitization potential, h-CLAT (CD54 and CD86 expression). The format is cell-based, human. The conditions noted are these: THP-1, h-CLAT. The source says:
The cell culture of keratinocytes was detached with EDTA solution 1X (Sigma-Aldrich, St. Louis, MO, USA) when the cells reached 70–80% confluence in cell culture flasks. […] Macrophages were mechanically detached with a cell scraper and subcultured in (1:10) proportion of cellular suspension to a final volume of DMEM. […] Cells were subcultured every 2 or 3 days and maintained in culture for 2–3 months, according to ATCC® instructions.
Following OECD guidelines, researchers utilized the THP-1 human monocyte cell line as a substitute for dendritic cells (DCs) to assess skin sensitization potential. […] The cell pellet was further resuspended in 100 µL of PBS and analyzed by flow cytometry using a BD Accuri™ C6 cytometer (San Jose, CA, USA).
CD86 and CD54 levels were analyzed by flow cytometry using the acquisition channels FL1 and FL4. Mitochondrial O2^− production was measured by flow cytometry using the acquisition channel FL2. The relative fluorescence intensity (RFI) of CD86 and CD54 (THP-1 maturation assay) and MitoSOX (mitochondrial antioxidant activity) in the control and chemical-treated cells, based on the geometric mean fluorescence intensity (MFI), was calculated according to the following equation: RFI=MFI of chemical treated cells−MFI of chemical treated unstained cells/MFI of control treated cells−MFI of control unstained cells ×100

For a further data set, the system named is human fibroblasts. The conditions noted are these: ref [15],[16],[17]; cited from earlier work.

As for `O=C1O[C@H]([C@@H](O)CO)C(O)=C1O` [AA, Ascorbic acid], in data set [1], the “effect on NO production” value is on record as “inhibited NO production”. In addition, the “reduction of NO production” value in data set [1] (relative to LPS = 100%) amounted to 30%. The “thermostability” value in data set [2] is given as “decomposed with time at all the temperatures tested”. Besides, the “absorbance normalized to t = 0” value in data set [2] (pH 5, 60 °C, in 2 h) was less than 30%; in data set [2] (pH 5, storage at 25 °C), less than 50%. In addition, the “pH stability” value in data set [3] was “unstable at acidic and neutral pH”. In data set [3] (acidic and neutral pH, 100 µM aqueous buffer), this molecule had a variations in absorbance of more than 90%.

Turning to `O=C1O[C@H]([C@@H](O)CO)C(O)=C1O[C@H]1O[C@H](CO)[C@@H](O)[C@H](O)[C@H]1O` [AAG, 2-O-α-D-glucopyranosyl-L-ascorbic acid], the “effect on NO production” value in data set [1] was “inhibited NO production”. Besides, in data set [4], the “skin sensitization potential” value was “AA, AAG, and AAGS with non-sensitizer profile”. Moreover, the collagen production with human fibroblasts was more than 12 µg/well.

Consider `O=C1OC(C(COS(=O)(=O)O)OS(=O)(=O)O)C(OS(=O)(=O)O)=C1OC1OC(COS(=O)(=O)O)C(OS(=O)(=O)O)C(OS(=O)(=O)O)C1OS(=O)(=O)O` [AAGS, 2-O-α-D-glucopyranosyl-L-ascorbic acid persulfate], for which the “thermostability” value in data set [2] is given as “highest level of stability among the compounds”. Besides, the “skin sensitization potential” value in data set [4] is “non-sensitizing profile; also recorded: AA, AAG, and AAGS with non-sensitizer profile”. Besides, in data set [3], the “pH stability” value is on record as “improved stability covering a larger range of pH values (pH = 2–6)”.
